Values quoted from earlier work as cited in patent US11331424B2, “Apparatus, systems and methods for delivery of medication to the brain to treat neurological conditions” (InCube Labs, LLC, priority 2009, dated 2022).
Like-named read-outs stand apart in the source and are kept apart here.

Key:
[1] = many patients; significant = more than about 10% increase in urine production or more than about 5% decrease in plasma electrolyte
[2] = system: evoked and spontaneous epileptic neural activity; settings: human patients
[3] = system: evoked and spontaneous epileptic neural activity; settings: epileptic animal models
[4] = oral administration

## NS(=O)(=O)c1cc(C(=O)O)c(NCc2ccco2)cc1Cl [Furosemide]
[1]
  threshold dosage which produces a significant increase in diuresis and/or significant decrease in the patient's electrolyte level(s): about 20 mg
[2]
  effect on evoked and spontaneous epileptic neural activity and subsequent cortical spreading depression: block evoked and spontaneous epileptic neural activity and subsequent cortical spreading depression
[3]
  effect on evoked and spontaneous epileptic neural activity and subsequent cortical spreading depression: block evoked and spontaneous epileptic neural activity and subsequent cortical spreading depression
[4]
  time to get into the patient's blood stream: ≥ 30 min
